Activity calls are given as the source filed them. The rule behind the calls is not given here.
Key:
[1] = biological target: T1, 5-hydroxytryptamine receptor 1A (Rattus norvegicus, UniProt P19327); assay: Displacement of [3H]8-OH-DPAT from 5-HT1A receptor in rat hippocampus; type: tissue-based
T1 sequence (P19327 whole entry): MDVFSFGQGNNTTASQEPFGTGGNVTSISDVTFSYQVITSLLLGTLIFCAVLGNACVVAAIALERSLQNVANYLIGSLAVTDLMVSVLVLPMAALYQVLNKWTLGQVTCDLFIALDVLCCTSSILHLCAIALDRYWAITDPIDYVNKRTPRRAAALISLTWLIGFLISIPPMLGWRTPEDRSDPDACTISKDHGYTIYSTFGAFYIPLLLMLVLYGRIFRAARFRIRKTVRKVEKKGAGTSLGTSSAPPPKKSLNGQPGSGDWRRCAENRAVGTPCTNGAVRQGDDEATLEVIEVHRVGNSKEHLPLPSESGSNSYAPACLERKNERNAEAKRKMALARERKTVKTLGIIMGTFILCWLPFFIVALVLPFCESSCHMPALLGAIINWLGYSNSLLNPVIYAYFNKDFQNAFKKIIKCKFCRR

[2] = biological target: Sodium-dependent serotonin transporter (Rattus norvegicus, UniProt P31652); assay: Displacement of [3H]citalopram from SERT in rat cerebral cortex by liquid scintillation counting; type: tissue-based
Chain of Sodium-dependent serotonin transporter (P31652 whole entry): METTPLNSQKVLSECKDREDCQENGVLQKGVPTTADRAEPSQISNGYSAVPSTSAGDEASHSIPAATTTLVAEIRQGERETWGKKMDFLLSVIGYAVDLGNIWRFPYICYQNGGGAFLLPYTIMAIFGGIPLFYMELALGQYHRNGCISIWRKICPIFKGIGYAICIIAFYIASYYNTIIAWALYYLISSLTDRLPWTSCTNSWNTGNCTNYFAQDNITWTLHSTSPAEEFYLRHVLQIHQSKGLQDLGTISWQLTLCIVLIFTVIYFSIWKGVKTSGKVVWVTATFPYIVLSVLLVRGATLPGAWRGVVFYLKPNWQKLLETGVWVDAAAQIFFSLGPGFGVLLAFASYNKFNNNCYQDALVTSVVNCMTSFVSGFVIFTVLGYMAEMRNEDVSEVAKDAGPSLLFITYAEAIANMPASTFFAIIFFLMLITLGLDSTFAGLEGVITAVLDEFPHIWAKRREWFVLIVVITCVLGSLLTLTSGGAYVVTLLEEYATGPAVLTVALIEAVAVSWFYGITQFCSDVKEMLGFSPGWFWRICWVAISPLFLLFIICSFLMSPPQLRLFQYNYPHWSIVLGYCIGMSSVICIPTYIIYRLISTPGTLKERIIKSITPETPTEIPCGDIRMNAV

Mus musculus [3] = assay: Effect on hypothermia in Swiss albino mouse assessed as change in rectal body temperature at 10 mg/kg, ip after 120 mins by inducible hypothermia test; type: functional, organism-based; parameters: dose 10 mg/kg
Mus musculus [4] = assay: Effect on hypothermia in Swiss albino mouse assessed as change in rectal body temperature at 10 mg/kg, ip after 90 mins by inducible hypothermia test; type: functional, organism-based; parameters: dose 10 mg/kg
Mus musculus [5] = assay: Effect on hypothermia in Swiss albino mouse assessed as change in rectal body temperature at 10 mg/kg, ip after 60 mins by inducible hypothermia test; type: functional, organism-based; parameters: dose 10 mg/kg
Mus musculus [6] = assay: Effect on hypothermia in Swiss albino mouse assessed as change in rectal body temperature at 10 mg/kg, ip after 30 mins by inducible hypothermia test; type: functional, organism-based; parameters: dose 10 mg/kg
Mus musculus [7] = assay: Effect on hypothermia in Swiss albino mouse assessed as change in rectal body temperature at 5 mg/kg, ip after 120 mins by inducible hypothermia test; type: functional, organism-based; parameters: dose 5 mg/kg
Mus musculus [8] = assay: Effect on hypothermia in Swiss albino mouse assessed as change in rectal body temperature at 5 mg/kg, ip after 90 mins by inducible hypothermia test; type: functional, organism-based; parameters: dose 5 mg/kg
Mus musculus [9] = assay: Effect on hypothermia in Swiss albino mouse assessed as change in rectal body temperature at 5 mg/kg, ip after 60 mins by inducible hypothermia test; type: functional, organism-based; parameters: dose 5 mg/kg
Mus musculus [10] = assay: Effect on hypothermia in Swiss albino mouse assessed as change in rectal body temperature at 5 mg/kg, ip after 30 mins by inducible hypothermia test; type: functional, organism-based; parameters: dose 5 mg/kg
Mus musculus [11] = assay: Effect on spontaneous locomotor activity in Swiss albino mouse assessed as number of light-beam crossings in actiometers pretreated for 30 mins at 10 mg/kg, ip measured during 6 mins post drug dose; type: functional; conditions: route intraperitoneal
Mus musculus [12] = assay: Effect on spontaneous locomotor activity in Swiss albino mouse assessed as number of light-beam crossings in actiometers pretreated for 30 mins at 10 mg/kg, ip measured during 30 mins post drug dose; type: functional; conditions: route intraperitoneal
Mus musculus [13] = assay: Antidepressant activity in Swiss albino mouse assessed as reduction of immobility time at 10 mg/kg, ip administered 30 mins before test measured 6 mins test session after 2 mins habituation period by forced swimming test; type: functional; parameters: scale not given: the % may be the effect or the level left; conditions: route intraperitoneal
Mus musculus [14] = assay: Antidepressant activity in Swiss albino mouse assessed as reduction of immobility time at 5 mg/kg, ip administered 30 mins before test measured 6 mins test session after 2 mins habituation period by forced swimming test; type: functional, organism-based; parameters: dose 5 mg/kg
Mus musculus [15] = assay: Effect on hypothermia in Swiss albino mouse assessed as change in rectal body temperature at 10 mg/kg, ip dosed 15 mins after 0.1 mg/kg, sc WAY 100635 challenge measured after 60 mins by inducible hypothermia test; type: functional, organism-based
Mus musculus [16] = assay: Effect on hypothermia in Swiss albino mouse assessed as change in rectal body temperature at 10 mg/kg, ip dosed 15 mins after 0.1 mg/kg, sc WAY 100635 challenge measured after 30 mins by inducible hypothermia test; type: functional, organism-based
Mus musculus [17] = assay: Effect on hypothermia in Swiss albino mouse assessed as change in rectal body temperature at 20 mg/kg, ip after 120 mins by inducible hypothermia test; type: functional, organism-based; parameters: dose 20 mg/kg
Mus musculus [18] = assay: Effect on hypothermia in Swiss albino mouse assessed as change in rectal body temperature at 20 mg/kg, ip after 90 mins by inducible hypothermia test; type: functional, organism-based; parameters: dose 20 mg/kg
Mus musculus [19] = assay: Effect on hypothermia in Swiss albino mouse assessed as change in rectal body temperature at 20 mg/kg, ip after 30 mins by inducible hypothermia test; type: functional, organism-based; parameters: dose 20 mg/kg
Mus musculus [20] = assay: Effect on hypothermia in Swiss albino mouse assessed as change in rectal body temperature at 20 mg/kg, ip after 60 mins by inducible hypothermia test; type: functional, organism-based; parameters: dose 20 mg/kg
Mus musculus [21] = organism: Mus musculus; conditions: Swiss albino, 20 mg/kg
Mus musculus [22] = organism: Mus musculus; conditions: Swiss albino, 20 mg/kg; remark: listed apart in the source
Mus musculus [23] = organism: Mus musculus; conditions: Swiss albino, 20 mg/kg; remark: listed apart in the source
Mus musculus [24] = organism: Mus musculus; conditions: Swiss albino, 20 mg/kg; remark: listed apart in the source
Mus musculus [25] = assay: Antidepressant activity in Swiss albino mouse assessed as reduction of immobility time at 2 mg/kg, sc administered 30 mins before test measured 6 mins test session after 2 mins habituation period by forced swimming test; type: functional; parameters: scale not given: the % may be the effect or the level left; conditions: route subcutaneous
Mus musculus [26] = assay: Antidepressant activity in Swiss albino mouse assessed as reduction of immobility time at 1 mg/kg, sc administered 30 mins before test measured 6 mins test session after 2 mins habituation period by forced swimming test; type: functional; parameters: scale not given: the % may be the effect or the level left; conditions: route subcutaneous

| Compound | Ki [1] | Ki [2] | deltaT (Mus musculus [3]) | deltaT (Mus musculus [4]) | deltaT (Mus musculus [5]) | deltaT (Mus musculus [6]) | deltaT (Mus musculus [7]) | deltaT (Mus musculus [8]) | deltaT (Mus musculus [9]) | deltaT (Mus musculus [10]) | also measured |
| --- | --- | --- | --- | --- | --- | --- | --- | --- | --- | --- | --- |
| Cc1[nH]c2ccccc2c1C1CCN(CCCCn2c(=O)c(-c3ccccc3Cl)c3n(c2=O)CCCC3)CC1 | 2100 nM | 480 nM |  |  |  |  |  |  |  |  |  |
| COc1ccc2[nH]cc(C3CCN(CCCCn4c(=O)c(-c5ccc(F)cc5)c5n(c4=O)CCCC5)CC3)c2c1 | 13.9 nM | 76.1 nM |  |  |  |  |  |  |  |  |  |
| O=c1c(-c2ccccc2F)c2n(c(=O)n1CCCCN1CCC(c3c[nH]c4ccccc34)CC1)CCCC2 | 27.8 nM | 102 nM | -0.5 °C | -0.8 °C | -1 °C | -1.2 °C | -0.1 °C | -0.2 °C | -0.2 °C | -0.3 °C | Activity (Mus musculus [11]): 217; Activity (Mus musculus [12]): 333; Activity (Mus musculus [13]): 27%; Activity (Mus musculus [14]): inactive; deltaT (Mus musculus [15]): -0.4 °C; deltaT (Mus musculus [16]): -0.6 °C |
| COc1ccc(-c2c3n(c(=O)n(CCCCN4CCC(c5c[nH]c6ccccc56)CC4)c2=O)CCCC3)cc1 | 20.5 nM | 71.6 nM | -0.3 °C | -0.4 °C | -0.5 °C | -0.7 °C | -0.1 °C | -0.2 °C | -0.2 °C | -0.5 °C | deltaT (Mus musculus [17]): -0.3 °C; deltaT (Mus musculus [18]): -0.4 °C; deltaT (Mus musculus [19]): -0.6 °C; deltaT (Mus musculus [20]): -0.7 °C; deltaT (Mus musculus [21]): -0.2 °C; deltaT (Mus musculus [22]): -0.3 °C; deltaT (Mus musculus [23]): -0.5 °C; deltaT (Mus musculus [24]): 0.6 °C |
| CCCN(CCC)C1CCc2cccc(O)c2C1 (centres undefined) [8-OH-DPAT] |  |  |  |  |  |  |  |  |  |  | Activity (Mus musculus [25]): 57%; Activity (Mus musculus [26]): 45% |
| Cc1[nH]c2ccccc2c1C1CCN(CCCCn2c(=O)c(-c3ccccc3F)c3n(c2=O)CCCC3)CC1 | 2200 nM | 944 nM |  |  |  |  |  |  |  |  |  |
| Cc1ccc(-c2c3n(c(=O)n(CCCCN4CCC(c5c[nH]c6ccccc56)CC4)c2=O)CCCC3)cc1 | 48.3 nM | 76.7 nM | -0.2 °C | -0.3 °C | -0.5 °C | -1 °C | -0.2 °C | -0.3 °C | -0.6 °C | -0.6 °C | Activity (Mus musculus [11]): 114; Activity (Mus musculus [12]): 221; Activity (Mus musculus [13]): 34%; Activity (Mus musculus [14]): inactive; deltaT (Mus musculus [15]): -0.6 °C; deltaT (Mus musculus [16]): -0.6 °C |
| Cc1ccccc1-c1c2n(c(=O)n(CCCCN3CCC(c4c[nH]c5ccccc45)CC3)c1=O)CCCC2 | 53.8 nM | 124 nM |  |  |  |  |  |  |  |  |  |
| COc1ccc2[nH]cc(C3CCN(CCCCn4c(=O)c(-c5ccccc5C)c5n(c4=O)CCCC5)CC3)c2c1 | 51.7 nM | 124 nM |  |  |  |  |  |  |  |  |  |
| COc1ccccc1-c1c2n(c(=O)n(CCCCN3CCC(c4c(C)[nH]c5ccccc45)CC3)c1=O)CCCC2 | 1600 nM | 719 nM |  |  |  |  |  |  |  |  |  |

— ChEMBL document CHEMBL1155961, “Novel 4-aryl-pyrido[1,2-c]pyrimidines with dual SSRI and 5-HT1A activity: part 2” (Eur J Med Chem, 2009)
